Assay results published in ChEMBL document CHEMBL1201862, “PubChem BioAssay data set” (2004).
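These data come from cells grown in 96-well plates and exposed to compound for 48 hours at five concentrations. GI50 is the concentration that inhibits growth by half.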 Calls of active or inactive are those of the source. No stated cut-off is given here; in the data, active = GI50 up to about 1.1 µM and inactive = higher.

How the values were obtained:
Assay in all cases: NCI anticancer screen, dose series, 48 h
DU-145 = test system: DU-145
MDA-MB-231 = test system: MDA-MB-231
MDA-MB-435 = test system: MDA-MB-435
MDA-N = test system: MDA-N
KM-20L2 = test system: KM-20L2
SNB-78 = test system: SNB-78
HOP-18 = test system: HOP-18
RXF 631 = test system: RXF 631

| SMILES | GI50 (DU-145) | GI50 (MDA-MB-231) | GI50 (MDA-MB-435) | GI50 (MDA-N) | GI50 (KM-20L2) | GI50 (SNB-78) | GI50 (HOP-18) | GI50 (RXF 631) |
| --- | --- | --- | --- | --- | --- | --- | --- | --- |
| Nc1n[nH]c2nc3ccccc3nc12 [QUINOXALINE1] | 63.5 µM (inactive) | > 100 µM (inactive) | > 100 µM (inactive) | > 100 µM (inactive) | – | – | – | – |
| O=C1OC2(OC2c2ccc(Cl)cc2)c2ccccc21 (stereo unspecified) | – | – | – | – | > 100 µM (inactive) | – | – | – |
| O=C(O)c1cc2sc(C(=O)O)cc2s1 | – | – | – | – | > 100 µM (inactive) | > 100 µM (inactive) | – | – |
| Cc1cnc(/C=N\NC(N)=S)c2cccc(N)c12 | 0.411 µM (active) | 1.52 µM (inactive) | 1.48 µM (inactive) | 0.767 µM (active) | – | – | – | – |
| CC(=O)OCC1OC(n2c(-c3ccc(C)cc3)cc(-c3ccco3)c(C#N)c2=S)C(OC(C)=O)C(OC(C)=O)C1OC(C)=O (stereo unspecified) | > 100 µM (inactive) | 22.9 µM (inactive) | > 100 µM (inactive) | > 100 µM (inactive) | – | – | – | – |
| O=[N+]([O-])C(=C/c1ccccc1)/C(=C\c1ccccc1)[N+](=O)[O-] | 16.1 µM (inactive) | 13.2 µM (inactive) | 16.5 µM (inactive) | 17.1 µM (inactive) | – | – | – | – |
| C=C(C(=O)C(=O)Oc1ccc(Cl)cc1)C(=O)c1ccc(C)cc1 | – | – | – | – | 59.7 µM (inactive) | 65 µM (inactive) | > 100 µM (inactive) | 46.2 µM (inactive) |
| COc1cc2c(cc1OC)-c1cc3ccccc3c(=O)n1CC2 | 25.6 µM (inactive) | 2.17 µM (inactive) | 22.8 µM (inactive) | 28.2 µM (inactive) | – | – | – | – |
| COc1ccc2c(c1)CC1Cc3ccccc3CCN1C2 (stereo unspecified) | 61.2 µM (inactive) | 6.65 µM (inactive) | 34.2 µM (inactive) | 47.9 µM (inactive) | – | – | – | – |
| Cc1ccc(S(N)(C(=O)Nc2cccc3ccccc23)[N+](=O)[O-])cc1 (stereo unspecified) | 68.2 µM (inactive) | 36.6 µM (inactive) | > 100 µM (inactive) | > 100 µM (inactive) | – | – | – | – |
| c1ccc2cc3n[se]nc3cc2c1 | – | – | – | – | > 100 µM (inactive) | > 100 µM (inactive) | < 0.01 µM (active) | 10.4 µM (inactive) |
| COc1nc2ccc(CNc3ccc(C(=O)NC(CCC(=O)O)C(=O)O)cc3)cc2nc1OC (stereo unspecified) | > 100 µM (inactive) | > 100 µM (inactive) | > 100 µM (inactive) | > 100 µM (inactive) | – | – | – | – |
| Cc1c2cnccc2c(C)c2c1c1ccccc1n2CCCCCCNCc1ccccc1 | – | – | – | – | 1.49 µM (inactive) | 1.96 µM (inactive) | 0.547 µM (active) | – |
| O=C1C(Cl)N(c2ccccc2)C1c1c[nH]c2ccccc12 (stereo unspecified) | – | – | – | – | > 100 µM (inactive) | – | – | – |
| CC(C)OP(=O)(OC(C)C)/C(I)=N/Nc1ccc([N+](=O)[O-])cc1 | – | – | – | – | > 100 µM (inactive) | > 100 µM (inactive) | – | – |
| COC(OC)C1OC(CO)C(n2cc(F)c(=O)[nH]c2=O)C1O (stereo unspecified) | 21.4 µM (inactive) | > 100 µM (inactive) | > 100 µM (inactive) | > 100 µM (inactive) | – | – | – | – |
| O=c1oc2ccccc2n1P(=O)(n1c(=O)oc2ccccc21)n1c(=O)oc2ccccc21 | – | – | – | – | > 100 µM (inactive) | > 100 µM (inactive) | – | > 100 µM (inactive) |
| c1ccc(/N=C2\SC3=NCCN3\C2=N/c2ccccc2)cc1 | 13.2 µM (inactive) | 22.9 µM (inactive) | 15.6 µM (inactive) | 15.7 µM (inactive) | – | – | – | – |
| C/C(=C1/N=C(c2cc([N+](=O)[O-])ccc2Cl)N(c2ccc(Br)cc2)C1=O)c1cc2ccccc2oc1=O | – | – | – | – | 17.6 µM (inactive) | 31.6 µM (inactive) | > 100 µM (inactive) | – |
| NC1(C(=O)O)CCCC1 [CYCLOLEUCINE] | – | – | – | – | > 625 µM (inactive) | > 244 µM (inactive) | > 625 µM (inactive) | – |
